Measured values published in publication PMC4411097, “Pachymic Acid Inhibits Growth and Induces Apoptosis of Pancreatic Cancer In Vitro and In Vivo by Targeting ER Stress” (PLoS ONE, 2015).

Tested on: MIA PaCa-2 cells
Assay: DNA microarray analysis (Affymetrix Human PrimeView);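 for Mean (MiaPaca-2 * PA): Log2-transformed RMA normalized probe set signal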
Format: cell-based
[1] = gene ATF3, probeset 11753632_x_at
[2] = gene C3orf52, probeset 11724431_at
[3] = gene C3orf59, probeset 11722936_at
[4] = gene C17orf91, probeset 11740895_a_at
[5] = gene C17orf91, probeset 11740896_s_at
[6] = gene CASP1, probeset 11750553_x_at
[7] = gene CCNE2, probeset 11728301_a_at
[8] = gene CD83, probeset 11743000_at
[9] = gene CDCP1, probeset 11732062_a_at
[10] = gene CDKN1A, probeset 11715387_at
[11] = gene CEBPG, probeset 11717693_at
[12] = gene CTGF, probeset 11715440_a_at
[13] = gene CTPS, probeset 11747890_a_at
[14] = gene CTSC, probeset 11731465_a_at
[15] = gene DDIT3, probeset 11758198_s_at
[16] = gene DNAJB1, probeset 11715445_a_at
[17] = gene DNAJB1, probeset 11715446_a_at
[18] = gene EGR1, probeset 11717862_x_at
[19] = gene EGR1, probeset 11754334_s_at
[20] = gene EGR3, probeset 11736342_at
[21] = gene EIF4A2, probeset 11760707_a_at
[22] = gene EIF4A2, probeset 11760708_at
[23] = gene FOS, probeset 11734659_a_at
[24] = gene FOSL1, probeset 11760574_x_at
[25] = gene HKDC1, probeset 11722519_at
[26] = gene HKDC1, probeset 11722521_at

## C=C(CC[C@@H](C(=O)O)[C@H]1[C@H](O)C[C@@]2(C)C3=C(CC[C@]12C)[C@@]1(C)CC[C@H](OC(C)=O)C(C)(C)[C@@H]1CC3)C(C)C [PA, Pachymic acid]
Gene AEN, probeset 11754296_a_at, MiaPaca-2
  Fold-Change (MiaPaca-2 * PA vs. MiaPaca-2 * control): 1.50
Gene AEN, probeset 11754296_a_at, MiaPaca-2, PA-treated
  Mean (MiaPaca-2 * PA): 8.26
[1]
  Fold-Change (MiaPaca-2 * PA vs. MiaPaca-2 * control): 1.60
  Mean (MiaPaca-2 * PA): 5.51
[2]
  Fold-Change (MiaPaca-2 * PA vs. MiaPaca-2 * control): 1.60
  Mean (MiaPaca-2 * PA): 7.34
[3]
  Fold-Change (MiaPaca-2 * PA vs. MiaPaca-2 * control): 1.55
  Mean (MiaPaca-2 * PA): 8.02
Gene C6orf145, probeset 11754483_a_at, MiaPaca-2
  Fold-Change (MiaPaca-2 * PA vs. MiaPaca-2 * control): 1.51
Gene C6orf145, probeset 11754483_a_at, MiaPaca-2, PA-treated
  Mean (MiaPaca-2 * PA): 7.32
[4]
  Fold-Change (MiaPaca-2 * PA vs. MiaPaca-2 * control): 1.61
  Mean (MiaPaca-2 * PA): 7.42
[5]
  Fold-Change (MiaPaca-2 * PA vs. MiaPaca-2 * control): 1.67
  Mean (MiaPaca-2 * PA): 7.56
Gene CAMTA1, probeset 11723154_s_at, MiaPaca-2
  Fold-Change (MiaPaca-2 * PA vs. MiaPaca-2 * control): 1.52
Gene CAMTA1, probeset 11723154_s_at, MiaPaca-2, PA-treated
  Mean (MiaPaca-2 * PA): 6.50
Gene CAPRIN2, probeset 11749098_a_at, MiaPaca-2
  Fold-Change (MiaPaca-2 * PA vs. MiaPaca-2 * control): 1.50
Gene CAPRIN2, probeset 11749098_a_at, MiaPaca-2, PA-treated
  Mean (MiaPaca-2 * PA): 8.43
Gene CASP1, probeset 11738884_x_at, MiaPaca-2
  Fold-Change (MiaPaca-2 * PA vs. MiaPaca-2 * control): 1.53
Gene CASP1, probeset 11738884_x_at, MiaPaca-2, PA-treated
  Mean (MiaPaca-2 * PA): 7.07
[6]
  Fold-Change (MiaPaca-2 * PA vs. MiaPaca-2 * control): 1.55
  Mean (MiaPaca-2 * PA): 7.39
[7]
  Fold-Change (MiaPaca-2 * PA vs. MiaPaca-2 * control): 1.56
  Mean (MiaPaca-2 * PA): 6.40
[8]
  Fold-Change (MiaPaca-2 * PA vs. MiaPaca-2 * control): 1.58
  Mean (MiaPaca-2 * PA): 7.70
Gene CDC25A, probeset 11726757_s_at, MiaPaca-2
  Fold-Change (MiaPaca-2 * PA vs. MiaPaca-2 * control): 1.51
Gene CDC25A, probeset 11726757_s_at, MiaPaca-2, PA-treated
  Mean (MiaPaca-2 * PA): 7.92
[9]
  Fold-Change (MiaPaca-2 * PA vs. MiaPaca-2 * control): 1.58
  Mean (MiaPaca-2 * PA): 6.86
[10]
  Fold-Change (MiaPaca-2 * PA vs. MiaPaca-2 * control): 1.56
  Mean (MiaPaca-2 * PA): 6.94
[11]
  Fold-Change (MiaPaca-2 * PA vs. MiaPaca-2 * control): 1.57
  Mean (MiaPaca-2 * PA): 9.81
Gene CEBPG, probeset 11717694_a_at, MiaPaca-2
  Fold-Change (MiaPaca-2 * PA vs. MiaPaca-2 * control): 1.51
Gene CEBPG, probeset 11717694_a_at, MiaPaca-2, PA-treated
  Mean (MiaPaca-2 * PA): 8.37
Gene CIDEB, probeset 11752838_s_at, MiaPaca-2
  Fold-Change (MiaPaca-2 * PA vs. MiaPaca-2 * control): 1.52
Gene CIDEB, probeset 11752838_s_at, MiaPaca-2, PA-treated
  Mean (MiaPaca-2 * PA): 5.52
[12]
  Fold-Change (MiaPaca-2 * PA vs. MiaPaca-2 * control): 1.65
  Mean (MiaPaca-2 * PA): 5.48
[13]
  Fold-Change (MiaPaca-2 * PA vs. MiaPaca-2 * control): 1.56
  Mean (MiaPaca-2 * PA): 7.43
[14]
  Fold-Change (MiaPaca-2 * PA vs. MiaPaca-2 * control): 1.61
  Mean (MiaPaca-2 * PA): 7.37
[15]
  Fold-Change (MiaPaca-2 * PA vs. MiaPaca-2 * control): 1.54
  Mean (MiaPaca-2 * PA): 6.68
[16]
  Fold-Change (MiaPaca-2 * PA vs. MiaPaca-2 * control): 1.59
  Mean (MiaPaca-2 * PA): 10.46
[17]
  Fold-Change (MiaPaca-2 * PA vs. MiaPaca-2 * control): 1.56
  Mean (MiaPaca-2 * PA): 11.54
Gene DUSP2, probeset 11721695_s_at, MiaPaca-2
  Fold-Change (MiaPaca-2 * PA vs. MiaPaca-2 * control): 1.51
Gene DUSP2, probeset 11721695_s_at, MiaPaca-2, PA-treated
  Mean (MiaPaca-2 * PA): 7.47
Gene DUSP5, probeset 11717863_a_at, MiaPaca-2
  Fold-Change (MiaPaca-2 * PA vs. MiaPaca-2 * control): 1.52
Gene DUSP5, probeset 11717863_a_at, MiaPaca-2, PA-treated
  Mean (MiaPaca-2 * PA): 7.89
Gene DUSP6, probeset 11741980_a_at, MiaPaca-2
  Fold-Change (MiaPaca-2 * PA vs. MiaPaca-2 * control): 1.53
Gene DUSP6, probeset 11741980_a_at, MiaPaca-2, PA-treated
  Mean (MiaPaca-2 * PA): 10.54
[18]
  Fold-Change (MiaPaca-2 * PA vs. MiaPaca-2 * control): 1.65
  Mean (MiaPaca-2 * PA): 7.37
[19]
  Fold-Change (MiaPaca-2 * PA vs. MiaPaca-2 * control): 1.60
  Mean (MiaPaca-2 * PA): 10.76
[20]
  Fold-Change (MiaPaca-2 * PA vs. MiaPaca-2 * control): 1.55
  Mean (MiaPaca-2 * PA): 6.51
[21]
  Fold-Change (MiaPaca-2 * PA vs. MiaPaca-2 * control): 1.61
  Mean (MiaPaca-2 * PA): 10.11
[22]
  Fold-Change (MiaPaca-2 * PA vs. MiaPaca-2 * control): 1.66
  Mean (MiaPaca-2 * PA): 7.82
Gene EIF4A2 /// SNORA4, probeset 11757137_s_at, MiaPaca-2
  Fold-Change (MiaPaca-2 * PA vs. MiaPaca-2 * control): 1.51
Gene EIF4A2 /// SNORA4, probeset 11757137_s_at, MiaPaca-2, PA-treated
  Mean (MiaPaca-2 * PA): 5.63
Gene EREG, probeset 11763822_at, MiaPaca-2
  Fold-Change (MiaPaca-2 * PA vs. MiaPaca-2 * control): 1.52
Gene EREG, probeset 11763822_at, MiaPaca-2, PA-treated
  Mean (MiaPaca-2 * PA): 6.66
Gene FLJ36031, probeset 11739442_s_at, MiaPaca-2
  Fold-Change (MiaPaca-2 * PA vs. MiaPaca-2 * control): 1.53
Gene FLJ36031, probeset 11739442_s_at, MiaPaca-2, PA-treated
  Mean (MiaPaca-2 * PA): 8.29
[23]
  Fold-Change (MiaPaca-2 * PA vs. MiaPaca-2 * control): 1.61
  Mean (MiaPaca-2 * PA): 7.33
Gene FOSL1, probeset 11724479_x_at, MiaPaca-2
  Fold-Change (MiaPaca-2 * PA vs. MiaPaca-2 * control): 1.52
Gene FOSL1, probeset 11724479_x_at, MiaPaca-2, PA-treated
  Mean (MiaPaca-2 * PA): 6.50
[24]
  Fold-Change (MiaPaca-2 * PA vs. MiaPaca-2 * control): 1.56
  Mean (MiaPaca-2 * PA): 8.39
Gene GBP1, probeset 11726328_x_at, MiaPaca-2
  Fold-Change (MiaPaca-2 * PA vs. MiaPaca-2 * control): 1.50
Gene GBP1, probeset 11726328_x_at, MiaPaca-2, PA-treated
  Mean (MiaPaca-2 * PA): 5.03
Gene HERPUD1, probeset 11741510_a_at, MiaPaca-2
  Fold-Change (MiaPaca-2 * PA vs. MiaPaca-2 * control): 1.50
Gene HERPUD1, probeset 11741510_a_at, MiaPaca-2, PA-treated
  Mean (MiaPaca-2 * PA): 9.22
[25]
  Fold-Change (MiaPaca-2 * PA vs. MiaPaca-2 * control): 1.60
  Mean (MiaPaca-2 * PA): 8.79
[26]
  Fold-Change (MiaPaca-2 * PA vs. MiaPaca-2 * control): 1.59
  Mean (MiaPaca-2 * PA): 6.86
Gene HMOX1, probeset 11753446_x_at, MiaPaca-2
  Fold-Change (MiaPaca-2 * PA vs. MiaPaca-2 * control): 1.50
Gene HMOX1, probeset 11753446_x_at, MiaPaca-2, PA-treated
  Mean (MiaPaca-2 * PA): 6.67
